Patent publication US20210094920A1, “NR2B LIGANDS; METHOD OF MAKING; AND USE THEREOF” (THE UNITED STATES OF AMERICA, AS REPRESENTED BY THE …, priority 2018, published 2021)
Like-named read-outs stand apart in the source and are kept apart here. Values belong to the compound of their own block, whether it stands above or below them.

Tests used:
NR2B site = NR2B site (Homo sapiens, UniProt Q05586+Q13224); test: binding to the NR2B site (Ki, automatic and manual); settings: for affinity for NR2B: stated in words
Description: (§1) All derivatives were evaluated for binding to the NR2B site and other neuro-targets. Table 1 provides the structures of the derivatives, molecular weight, calculated Log D values, the structure-activity relationship, and binding data.

σ2 receptor = σ2 receptor (Homo sapiens, UniProt Q5BJF2); test: σ2 receptor binding at 10 μM
Description: as §1

σ1 receptor = σ1 receptor (Homo sapiens, UniProt Q99720); test: σ1 receptor binding at 10 μM
Description: as §1

[1] = molecular target: NR2B subunits in NMDA receptors (Rattus norvegicus, UniProt P35439+Q00960); test: PET imaging of brain in rats (baseline, preblock, displacement); settings: for effect of pretreatment on brain radioactivity uptake / displacement of radioligand: radioligand [^11C]NR2B-SMe; for displacement of radioligand: given at 15 min after radioligand, over 90 min; for brain radioactivity uptake / washout of brain radioactivity: rats at baseline; for brain radioactivity uptake: i.v. radioligand, at 5 minutes; for washout of brain radioactivity: over 90 minutes
Description: Displacement studies where NR2B-SMe or eliprodil was given at 15 min after radioligand were also performed.

[2] = system: NR2B subunits in NMDA receptors; test: Brain PET imaging (VT/fP) in monkey (baseline, Co101244 block, self-block); type: in vivo
[3] = system: NR2B subunits in NMDA receptors; test: as above; type: in vivo; remark: listed apart in the source
Text: Table 2 provides the normalized total volume of distribution (VT/fP) (ml/cm^3) for whole brain and specific regions of the brain at baseline, Co101244 (1-[2-(4-hydroxyphenoxy)ethyl]-4-[(4-methylphenyl)methyl]-4-piperidinol) block and self-block.

[4] = automatic, read-out: Ki (nM), automatic
[5] = manual, read-out: Ki (nM), manual
[6] = rats, 0.01-3 mg/kg, i.v. at 15 min before radioligand injection

Sequence of NR2B site (Q13224 27-1484, other chains not shown): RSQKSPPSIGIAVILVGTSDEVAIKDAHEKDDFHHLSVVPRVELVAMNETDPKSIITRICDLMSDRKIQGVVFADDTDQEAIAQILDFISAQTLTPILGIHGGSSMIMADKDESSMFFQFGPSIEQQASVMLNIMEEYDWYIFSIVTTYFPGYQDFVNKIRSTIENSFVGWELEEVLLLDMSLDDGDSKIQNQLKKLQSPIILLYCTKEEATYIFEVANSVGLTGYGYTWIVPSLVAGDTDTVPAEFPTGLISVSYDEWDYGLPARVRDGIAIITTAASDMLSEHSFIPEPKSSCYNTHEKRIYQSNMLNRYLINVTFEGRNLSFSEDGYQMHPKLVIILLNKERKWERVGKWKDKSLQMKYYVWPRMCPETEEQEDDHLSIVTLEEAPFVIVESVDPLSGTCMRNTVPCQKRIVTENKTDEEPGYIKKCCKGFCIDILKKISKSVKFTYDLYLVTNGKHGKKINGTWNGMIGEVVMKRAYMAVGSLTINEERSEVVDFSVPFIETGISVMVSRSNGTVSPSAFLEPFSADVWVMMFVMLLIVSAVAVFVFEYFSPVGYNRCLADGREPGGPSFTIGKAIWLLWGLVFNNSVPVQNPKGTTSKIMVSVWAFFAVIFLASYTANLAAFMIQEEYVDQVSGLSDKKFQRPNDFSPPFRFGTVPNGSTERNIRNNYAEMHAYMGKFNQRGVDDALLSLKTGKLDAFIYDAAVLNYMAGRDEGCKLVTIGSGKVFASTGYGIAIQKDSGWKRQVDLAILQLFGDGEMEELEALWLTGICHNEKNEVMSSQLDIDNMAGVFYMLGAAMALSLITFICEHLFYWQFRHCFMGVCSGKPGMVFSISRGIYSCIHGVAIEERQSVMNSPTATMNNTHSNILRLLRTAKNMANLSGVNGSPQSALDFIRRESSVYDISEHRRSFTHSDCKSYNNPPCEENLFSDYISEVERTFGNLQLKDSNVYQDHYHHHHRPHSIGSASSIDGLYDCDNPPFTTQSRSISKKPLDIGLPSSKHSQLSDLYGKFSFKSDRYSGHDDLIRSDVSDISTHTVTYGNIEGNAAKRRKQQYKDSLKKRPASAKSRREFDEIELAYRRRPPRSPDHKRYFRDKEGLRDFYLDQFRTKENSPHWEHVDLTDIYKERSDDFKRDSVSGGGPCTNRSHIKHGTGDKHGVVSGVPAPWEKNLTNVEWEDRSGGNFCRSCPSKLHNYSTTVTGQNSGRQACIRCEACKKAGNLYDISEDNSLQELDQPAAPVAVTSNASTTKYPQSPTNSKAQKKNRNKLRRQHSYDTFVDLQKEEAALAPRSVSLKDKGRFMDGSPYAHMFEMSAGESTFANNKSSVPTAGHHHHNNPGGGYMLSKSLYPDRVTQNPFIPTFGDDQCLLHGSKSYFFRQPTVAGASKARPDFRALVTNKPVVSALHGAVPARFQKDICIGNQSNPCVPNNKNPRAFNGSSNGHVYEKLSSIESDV
Sequence of σ2 receptor (Q5BJF2 whole entry, species assumed): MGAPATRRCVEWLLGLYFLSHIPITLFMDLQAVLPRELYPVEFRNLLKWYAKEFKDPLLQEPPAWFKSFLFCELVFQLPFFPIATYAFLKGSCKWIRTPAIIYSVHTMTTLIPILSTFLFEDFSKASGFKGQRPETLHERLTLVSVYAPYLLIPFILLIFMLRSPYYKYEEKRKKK
Sequence of σ1 receptor (Q99720 whole entry): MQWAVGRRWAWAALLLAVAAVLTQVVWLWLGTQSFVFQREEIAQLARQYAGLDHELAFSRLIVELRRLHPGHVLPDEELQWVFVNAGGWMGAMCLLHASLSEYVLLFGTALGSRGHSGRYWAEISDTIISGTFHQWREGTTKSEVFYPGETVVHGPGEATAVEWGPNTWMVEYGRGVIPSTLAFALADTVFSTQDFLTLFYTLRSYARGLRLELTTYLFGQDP
Sequence of NR2B subunits in NMDA receptors (Rattus norvegicus, UniProt P35439+Q00960) (Q00960 27-1482, other chains not shown): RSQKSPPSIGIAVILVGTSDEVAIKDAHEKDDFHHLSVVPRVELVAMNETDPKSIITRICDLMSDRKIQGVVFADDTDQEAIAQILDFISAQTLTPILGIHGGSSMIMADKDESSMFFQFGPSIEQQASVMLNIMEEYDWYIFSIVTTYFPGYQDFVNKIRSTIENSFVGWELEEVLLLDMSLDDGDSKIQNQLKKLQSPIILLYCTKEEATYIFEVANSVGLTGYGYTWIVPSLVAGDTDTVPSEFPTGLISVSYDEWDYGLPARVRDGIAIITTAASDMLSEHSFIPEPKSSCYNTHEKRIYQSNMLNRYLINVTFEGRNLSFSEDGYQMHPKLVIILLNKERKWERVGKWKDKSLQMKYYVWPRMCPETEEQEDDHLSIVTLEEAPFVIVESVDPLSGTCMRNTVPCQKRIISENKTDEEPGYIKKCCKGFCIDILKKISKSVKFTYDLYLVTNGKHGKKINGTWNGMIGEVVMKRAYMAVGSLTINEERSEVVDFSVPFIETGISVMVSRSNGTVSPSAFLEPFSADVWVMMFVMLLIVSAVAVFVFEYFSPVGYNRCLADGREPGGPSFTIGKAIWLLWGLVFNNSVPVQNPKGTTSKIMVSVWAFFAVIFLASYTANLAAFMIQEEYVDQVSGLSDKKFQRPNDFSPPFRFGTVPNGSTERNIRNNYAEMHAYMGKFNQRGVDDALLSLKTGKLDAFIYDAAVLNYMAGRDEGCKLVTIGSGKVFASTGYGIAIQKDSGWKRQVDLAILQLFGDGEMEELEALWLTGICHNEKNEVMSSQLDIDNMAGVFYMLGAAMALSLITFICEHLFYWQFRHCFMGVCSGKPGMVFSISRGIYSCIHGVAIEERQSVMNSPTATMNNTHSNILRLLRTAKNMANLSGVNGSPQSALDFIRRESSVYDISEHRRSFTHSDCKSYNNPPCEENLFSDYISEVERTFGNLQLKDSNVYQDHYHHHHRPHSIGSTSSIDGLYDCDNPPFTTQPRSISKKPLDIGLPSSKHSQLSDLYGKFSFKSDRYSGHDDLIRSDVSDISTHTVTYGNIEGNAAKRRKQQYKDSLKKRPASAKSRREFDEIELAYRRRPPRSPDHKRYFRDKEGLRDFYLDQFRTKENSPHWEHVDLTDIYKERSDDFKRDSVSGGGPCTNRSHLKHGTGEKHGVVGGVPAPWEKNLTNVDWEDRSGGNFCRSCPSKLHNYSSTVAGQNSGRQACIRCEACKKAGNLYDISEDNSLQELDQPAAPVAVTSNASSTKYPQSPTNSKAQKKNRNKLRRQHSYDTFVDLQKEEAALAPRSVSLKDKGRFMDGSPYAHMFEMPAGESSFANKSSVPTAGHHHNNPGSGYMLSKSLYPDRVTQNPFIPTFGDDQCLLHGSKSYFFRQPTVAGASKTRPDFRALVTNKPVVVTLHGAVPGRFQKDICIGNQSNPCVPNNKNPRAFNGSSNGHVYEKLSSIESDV

SMILES: COc1ccc2c(c1)CCN(CCC#Cc1ccccn1)CC2O (stereo not drawn) [Compound 7]
inhibition at 10 µM (σ2 receptor): 74.2%
inhibition at 10 µM (σ1 receptor): 66.4%

SMILES: COc1ccc2c(c1)CCN(CCC#Cc1cccc(F)n1)CC2O (stereo not drawn) [Compound 8]
inhibition at 10 µM (σ2 receptor): 56.4%
inhibition at 10 µM (σ1 receptor): 40.8%

SMILES: COc1ccc2c(c1)CCN(CCCCc1ccc(SC)cc1)CC2O (stereo not drawn) [Compound 9, 7-methoxy-3-(4-(4-(methylthio)phenyl)butyl)-2,3,4,5-tetrahydro-1H-benzo[d]azepin-1-ol]
Ki (NR2B site; [4]): 20 nM
affinity for NR2B (NR2B site): in the nM range
effect of pretreatment on brain radioactivity uptake [1, 6]: blocked brain radioactivity uptake in a dose-dependent manner
displacement of radioligand ([1]; rats): only slow and low displacement

SMILES: OC(CN1CCC(Cc2ccc(F)cc2)CC1)c1ccc(Cl)cc1 (stereo not drawn) [Eliprodil, reference compound]
effect of pretreatment on brain radioactivity uptake ([1]; rats, 3 mg/kg i.v): blocked brain radioactivity uptake to the similar high extent
displacement of radioligand ([1]; rats): failed to displace radioligand

SMILES: COc1ccc(CCN2CCN(CCCc3ccccc3)CC2)cc1OC [SA 4503, reference compound]
effect of pretreatment on brain radioactivity uptake [1, 6]: blocked brain radioactivity uptake in a dose-dependent manner

SMILES: COc1ccc2c(c1)CCN(CCCCc1ccc(SC)cc1)CC2O (stereo not drawn) [[^11C]NR2B-SMe, [^11C] 7-methoxy-3-(4-(4-(methylthio)phenyl)butyl)-2,3,4,5-tetrahydro-1H-benzo[d]azepin-1-ol]
brain radioactivity uptake [1]: 3.5 SUV
washout of brain radioactivity [1]: very low washout

SMILES: CC(C(O)c1ccc(O)cc1)N1CCC(Cc2ccccc2)CC1 (stereo not drawn) [ifendopril, reference compound]
effect of pretreatment on brain radioactivity uptake ([1]; rats, 3 mg/kg i.v): blocked brain radioactivity uptake to the similar high extent

More lines, main results first:

Ki (NR2B site; [4]): 43.5 nM
Ki (NR2B site; [5]): 9.8 nM
inhibition at 10 µM (σ2 receptor): 87.8%
inhibition at 10 µM (σ1 receptor): 89.1%
SMILES: COc1ccc2c(c1)CCN(CCCCc1ccccc1)CC2O (stereo not drawn) [Compound 1, 7-methoxy-3-(4-phenylbutyl)-2,3,4,5-tetrahydro-1H-benzo[d]azepin-1-ol, reference compound]

inhibition at 10 µM (σ1 receptor): 84.4%
SMILES: COc1ccc2c(c1)CCN(CCCCc1ccc3ccccc3c1)CC2O (stereo not drawn) [Compound 2]

inhibition at 10 µM (σ2 receptor): 91.4%
SMILES: COc1ccc(CCCCN2CCc3cc(OC)ccc3C(O)C2)cc1 (stereo not drawn) [Compound 3]

Ki (NR2B site; [4]): 31.3 nM
Ki (NR2B site; [5]): 4.9 nM
affinity for NR2B (NR2B site): in the nM range
inhibition at 10 µM (σ2 receptor): 90.7%
inhibition at 10 µM (σ1 receptor): 89.7%
SMILES: COc1ccc2c(c1)CCN(CCCCc1ccc(C)cc1)CC2O (stereo not drawn) [Compound 4, 7-methoxy-3-(4-(4-methylphenyl)butyl)-2,3,4,5-tetrahydro-1H-benzo[d]azepin-1-ol]

inhibition at 10 µM (σ2 receptor): 90%
inhibition at 10 µM (σ1 receptor): 83.7%
SMILES: COc1ccc2c(c1)CCN(CCCCc1ccc(Br)cc1)CC2O (stereo not drawn) [Compound 5]

inhibition at 10 µM (σ2 receptor): 76.9%
inhibition at 10 µM (σ1 receptor): 57.9%
SMILES: COc1ccc2c(c1)CCN(CCCCc1ccc(F)cc1)CC2O (stereo not drawn) [Compound 6]

brain radioactivity uptake [1]: 3.0 SUV
washout of brain radioactivity [1]: slow washout
SMILES: COc1ccc2c(c1)CCN(CCCCc1ccc(C)cc1)CC2O (stereo not drawn) [[^11C]NR2B-Me, 7-methoxy-3-(4-(4-methylphenyl)butyl)-2,3,4,5-tetrahydro-1H-benzo[d]azepin-1-ol]

time after radioligand injection from which V showed time stability [2]: ≥ 80 min
displacement ([1]; PET imaging in rats): 65%
preblocking ([1]; PET imaging in rats): 95%
reversibility of binding ([1]; PET imaging in rats): reversible binding
washout of brain radioactivity [1]: slow washout
brain radioactivity uptake (in words) ([1]; rats, within 5 minutes): very high
Normalized Total Volume of Distribution (VT/fp) ([3]; Amygdala, Baseline Ave.): 3171.1 ml/cm^3
Normalized Total Volume of Distribution (VT/fp) ([3]; Amygdala, Co101244 block): 515.5 ml/cm^3
Normalized Total Volume of Distribution (VT/fp) ([3]; Amygdala, Self-block): 405.4 ml/cm^3
Normalized Total Volume of Distribution (VT/fp) ([3]; Cerebellum, Baseline Ave.): 1465.9 ml/cm^3
Normalized Total Volume of Distribution (VT/fp) ([3]; Cerebellum, Co101244 block): 426.4 ml/cm^3
Normalized Total Volume of Distribution (VT/fp) ([3]; Cerebellum, Self-block): 348.6 ml/cm^3
Normalized Total Volume of Distribution (VT/fp) ([3]; Cingulate Cortex, Baseline Ave.): 2388.9 ml/cm^3
Normalized Total Volume of Distribution (VT/fp) ([3]; Cingulate Cortex, Co101244 block): 523.3 ml/cm^3
Normalized Total Volume of Distribution (VT/fp) ([3]; Cingulate Cortex, Self-block): 400.0 ml/cm^3
Normalized Total Volume of Distribution (VT/fp) ([3]; Frontal Cortex, Baseline Ave.): 2254.5 ml/cm^3
Normalized Total Volume of Distribution (VT/fp) ([3]; Frontal Cortex, Co101244 block): 562.0 ml/cm^3
Normalized Total Volume of Distribution (VT/fp) ([3]; Frontal Cortex, Self-block): 451.4 ml/cm^3
Normalized Total Volume of Distribution (VT/fp) ([3]; Hippocampus, Baseline Ave.): 2389.6 ml/cm^3
Normalized Total Volume of Distribution (VT/fp) ([3]; Hippocampus, Co101244 block): 465.1 ml/cm^3
Normalized Total Volume of Distribution (VT/fp) ([3]; Hippocampus, Self-block): 370.3 ml/cm^3
Normalized Total Volume of Distribution (VT/fp) ([3]; Insula, Baseline Ave.): 2314.2 ml/cm^3
Normalized Total Volume of Distribution (VT/fp) ([3]; Insula, Co101244 block): 542.6 ml/cm^3
Normalized Total Volume of Distribution (VT/fp) ([3]; Insula, Self-block): 408.1 ml/cm^3
Normalized Total Volume of Distribution (VT/fp) ([3]; Occipital Lobe, Baseline Ave.): 1676.3 ml/cm^3
Normalized Total Volume of Distribution (VT/fp) ([3]; Occipital Lobe, Co101244 block): 484.5 ml/cm^3
Normalized Total Volume of Distribution (VT/fp) ([3]; Occipital Lobe, Self-block): 402.7 ml/cm^3
Normalized Total Volume of Distribution (VT/fp) ([3]; Parietal Lobe, Baseline Ave.): 2001.4 ml/cm^3
Normalized Total Volume of Distribution (VT/fp) ([3]; Parietal Lobe, Co101244 block): 538.8 ml/cm^3
Normalized Total Volume of Distribution (VT/fp) ([3]; Parietal Lobe, Self-block): 440.5 ml/cm^3
Normalized Total Volume of Distribution (VT/fp) ([3]; Striatum, Baseline Ave.): 1965.2 ml/cm^3
Normalized Total Volume of Distribution (VT/fp) ([3]; Striatum, Co101244 block): 573.6 ml/cm^3
Normalized Total Volume of Distribution (VT/fp) ([3]; Striatum, Self-block): 437.8 ml/cm^3
Normalized Total Volume of Distribution (VT/fp) ([3]; Temporal Lobe, Baseline Ave.): 1956.8 ml/cm^3
Normalized Total Volume of Distribution (VT/fp) ([3]; Temporal Lobe, Co101244 block): 476.7 ml/cm^3
Normalized Total Volume of Distribution (VT/fp) ([3]; Temporal Lobe, Self-block): 373.0 ml/cm^3
Normalized Total Volume of Distribution (VT/fp) ([3]; Thalamus, Baseline Ave.): 2385.1 ml/cm^3
Normalized Total Volume of Distribution (VT/fp) ([3]; Thalamus, Co101244 block): 596.9 ml/cm^3
Normalized Total Volume of Distribution (VT/fp) ([3]; Thalamus, Self-block): 445.9 ml/cm^3
Normalized Total Volume of Distribution (VT/fp) ([3]; Whole Brain, Baseline Ave.): 1959.7 ml/cm^3
Normalized Total Volume of Distribution (VT/fp) ([3]; Whole Brain, Co101244 block): 511.6 ml/cm^3
Normalized Total Volume of Distribution (VT/fp) ([3]; whole brain, self-block): 408.1 ml/cm^3
SMILES: COc1ccc2c(c1)CCN(CCCCc1ccc(C)cc1)C[C@@H]2O [[^11C]NR2B-MeI, (R)(−)7-methoxy-3-(4-(4-methylphenyl)butyl)-2,3,4,5-tetrahydro-1H-benzo[d]azepin-1-ol]
binding potential of whole brain, BPND ([2]; whole brain, self-block): 4.6
binding potential of whole brain, BPND ([3]; whole brain, Co101244): 3.8
